From article PMC7007292 (Oncotarget, 2020)
Entries after “also recorded” stand apart in the source; their conditions may differ. Like-named read-outs stand apart in the source and are kept apart here.

Assays:
[1] = system: GC cell lines (AGP-01, ACP-02, ACP-03); test: Growth inhibition assay, all GC cell lines; assay type: cell-based, human
Description: All cell lines were cultured in Dulbecco’s Modified Eagle Medium, high Glucose (4.5 g/L), with Sodium Pyruvate and L-glutamin] (DMEM, Lonza, UK), containing 10% foetal bovine serum (FBS) (Invitrogen, USA), 1% antibiotic with 100 IU/ml Penicillin and 100 ug/ml Streptomycin (Invitrogen, USA). The culture medium was changed 2 to 3 times a week and cells were passaged using trypsin/EDTA (Invitrogen, USA).
Resarzurin was used for growth inhibition assays. Briefly, cells (300/well) were plated in 384-well flat-bottomed plates and cultured for 24 h. […] All the following in vitro experiments were performed on metastatic AGP-01 cells.

[2] = system: GC patients; settings: cited from earlier work; for beneficial effects in clinical trials: NCT00215995, NCT00595985, NCT00725712
[3] = system: ACP-03 cells; test: Growth inhibition assay (resazurin); assay type: cell-based, human; settings: 2D culture, 72 h, value (± SD)
[4] = system: AGP-01 cells; test: Growth inhibition assay (resazurin); settings: 2D culture, 72 h, value (± SD)
[5] = system: ACP-02 cells; test: Growth inhibition assay (resazurin); assay type: cell-based, human; settings: 2D culture, 72 h, value (± SD)
[6] = system: AGP-01 cells; test: Microfilament analysis (cortical actin, confocal); assay type: cell-based, human
Description: Between each step described above, cells were washed three times with PBS for 5 min at 37°C. […] Images were capture by a laser confocal microscope at 40× (Zeiss, Germany). Image analysis of actin fibers was performed using Acapella (Perkin Elmer). Nuclei were automatically segmented using DAPI channel. Cells were segmented using both DAPI and Actin channels. Dense actin was defined by thresholding to find pixels that were much brighter than their surrounding in the membrane region. The area of dense actin in the membrane region was calculated and normalized to the cell area. Similarly the actin intensity in the membrane region was measured and normalized to the cell area.

[7] = system: peritoneal metastasis of GC; settings: xenograft mouse model; oral and intraperitoneal administration; cited from earlier work
[8] = system: kinase targets; settings: cited from earlier work
[9] = system: kinases; settings: beside BCR-ABL and SRC; cited from earlier work
[10] = system: AGP-01 cells; test: Morphological analysis; assay type: cell-based, human; settings: 100 nM, 500 nM, 1 μM, 24 h
[11] = system: AGP-01 cells; test: Cell invasion assay (ECM coated inserts); assay type: cell-based, human; settings: 100 nM, 500 nM, 1 μM, 24 h, legend 8 h
Description: Cell migration assays were performed using an IncuCyte® life-cell analysis system (Essen Bioscience, USA). […] Images were captured every 2 h for 48 h and evaluated using the InCucyte® software where the wound width was calculated and expressed as percent relative to the control (0.1% DMSO). Cell invasion was assessed by using the cell invasion assay. A 24-well tissue culture plate (Corning) with cell culture inserts which contained an 8 μm pore size polycarbonate membrane was used. […] After 8 h incubation, cells were removed from the inner surface of the insert using a cotton-tipped swab. […] The number of migrating cells per insert was captured by the Operetta System (Perkin Elmer) and counted automatically.

Compound | IC50 ([3]; Homo sapiens) | IC50 [4] | IC50 ([5]; Homo sapiens) | further results
Cc1ccc(NC(=O)c2ccc(CN3CCN(C)CC3)cc2)cc1Nc1nccc(-c2cccnc2)n1 [imatinib] |  |  |  | antiproliferative effect [1]: no proliferation inhibition was observed
COc1cc2c(Oc3ccc(NC(=O)C4(C(=O)Nc5ccc(F)cc5)CC4)cc3F)ccnc2cc1OCCCN1CCOCC1 [GSK1363089] |  |  |  | beneficial effects in clinical trials [2]: failed to show beneficial effects
COc1cc2nccc(Oc3ccc(NC(=O)Nc4cc(C)on4)c(Cl)c3)c2cc1OC [Tivozanib] | > 20 µM | > 20 µM | > 20 µM | 
CN1CCN(CCOc2cc(OC3CCOCC3)c3c(Nc4c(Cl)ccc5c4OCO5)ncnc3c2)CC1 [Saracatinib] | 2.8 µM | 2.38 µM | 5.94 µM | 
CC[C@@H]1/C=C(\C)C[C@H](C)C[C@H](OC)[C@H]2O[C@@](O)(C(=O)C(=O)N3CCCC[C@H]3C(=O)O[C@H](/C(C)=C/[C@@H]3CC[C@H](Cl)[C@H](OC)C3)[C@H](C)[C@@H](O)CC1=O)[C@H](C)C[C@@H]2OC [Pimecrolimus] | > 20 µM | > 20 µM | > 20 µM | 
Cc1ccc(Nc2nccc(N(C)c3ccc4c(C)n(C)nc4c3)n2)cc1S(N)(=O)=O [Pazopanib] | > 20 µM | > 20 µM | > 20 µM | 
C=CCN(/C=C1/C(=O)O[C@H](COC)[C@@]2(C)C1=C(O)C(=O)C1=C2[C@H](OC(C)=O)C[C@]2(C)C(=O)CC[C@@H]12)CC=C [PX-866] |  | > 20 µM |  | IC50 [3]: > 20 µM; IC50 [5]: > 20 µM
CO[C@H]1C[C@@H]2CC[C@@H](C)[C@@](O)(O2)C(=O)C(=O)N2CCCC[C@H]2C(=O)O[C@H]([C@H](C)C[C@@H]2CC[C@@H](OCCO)[C@H](OC)C2)CC(=O)[C@H](C)/C=C(\C)[C@@H](O)[C@@H](OC)C(=O)[C@H](C)C[C@H](C)/C=C/C=C/C=C/1C [Everolimus] | > 20 µM | > 20 µM | > 20 µM | 
COc1cc2c(Nc3ccc(Br)cc3F)ncnc2cc1OCC1CCN(C)CC1 [Vandetanib] | > 20 µM | > 20 µM | > 20 µM | 
CCN(CC)CCNC(=O)c1c(C)[nH]c(/C=C2\C(=O)Nc3ccc(F)cc32)c1C [Sunitinib] | 1.97 µM | 1.53 µM |  | beneficial effects in clinical trials [2]: failed to show beneficial effects
N#CC[C@H](C1CCCC1)n1cc(-c2ncnc3[nH]ccc23)cn1 [Ruxolitinib] | > 20 µM | > 20 µM | > 20 µM | 
ramucirumab: VEGFR2 inhibitor approved as second line treatment of GC |  |  |  | median OS ([2]; second line, alone or with paclitaxel, local relapsed or metastatic GC): improvement on median OS
CCCS(=O)(=O)Nc1ccc(F)c(C(=O)c2c[nH]c3ncc(-c4ccc(Cl)cc4)cc23)c1F [Vemurafenib] | > 20 µM | > 20 µM | > 20 µM | 
Cc1cn(-c2cc(NC(=O)c3ccc(C)c(Nc4nccc(-c5cccnc5)n4)c3)cc(C(F)(F)F)c2)cn1 [nilotinib] |  |  |  | antiproliferative effect ([1]; GC cell lines, 72 h incubation): no proliferation inhibition was observed
N#CC1(c2ccc(NC(=O)c3cccnc3NCc3ccncc3)cc2)CCCC1 [apatinib] |  |  |  | median OS and progression free survival ([2]; third line therapy for GC): significant benefit
Cc1nc(Nc2ncc(C(=O)Nc3c(C)cccc3Cl)s2)cc(N2CCN(CCO)CC2)n1 [Dasatinib] |  | 0.35 µM | 1.02 µM | cortical actin in the membrane region ([6]; confocal imaging, 100 nM, 500 nM, 1 μM, 24 h): significant increase; area of cortical actin ([6]; single cells, p-value < 0.01): significantly higher; intensity of cortical actin ([6]; single cells, p-value < 0.01): significantly higher; peritoneal metastasis of GC [7]: suppressing peritoneal metastasis of GC; number of targets identified [8]: 72; number of additional kinases identified as targets [9]: ~40; morphology of the cells [10]: morphological changes; IC50 ([1]; 72 h incubation): 1 µM; cell invasion [11]: significantly inhibited; also recorded: Inhibition of cell invasion and migration
CS(=O)(=O)CCNCc1ccc(-c2ccc3ncnc(Nc4ccc(OCc5cccc(F)c5)c(Cl)c4)c3c2)o1 [lapatinib] |  |  |  | beneficial effects in clinical trials [2]: failed to show beneficial effects
